A word on the Km: it is the substrate concentration at which the rate is half of its maximum.

The test system of one test is nitric oxide (NO). Put plainly: Measurement of nitric oxide (NO) in penile tissues. In kind it is in vivo. Conditions: male Sprague-Dawley rats, orally administered for 7 days twice a day; AFG 200 and 400 mg/kg/day, BGE 400 mg/kg/day; vs control group; FIG. 9. Here is the method: (§1) 8 weeks old male Sprague-Dawley rats were obtained from Orient Co., Ltd. (Korea) and used as exprimental animals. A breeding cage was conditioned with artificial lighting for 12 hours (8:00 a.m. to 8:00 p.m) and maintained at 20±3° C. The rats were provided with purified water and fed with pellet diet (Samyang diet, Korea). Food and water were not limited and supplied to the rats at a certain time of 9:00 a.m. to 10:00 a.m. every day.
8 weeks old male Sprague-Dawley rats were allowed to be adapted to the environment of the breeding cage. Depending on their body weight, the rats were divided into 5 groups of control group (saline), Viagra® group (1.7 mg/kg/day), two AFG groups (200 and 400 mg/kg/day) and BGE (conventional red ginseng) group (400 mg/kg/day) and orally administered for 7 days twice a day (in the morning and in the afternoon). The amount of dietary intake was measured at a certain time of 9:00 a.m. to 10:00 a.m. every day. […]
The amount of the produced nitric oxide was measured by a method which slightly modifies methods proposed by Park (J. Ethnopharmacol, 2004) and Knowles (Biochem. J, 1990). […]
For 200 μL of the supernatant, the fluorescence intensity of DAF was measured at 485 nm of excitation wavelength and at 535 nm of emission wavelength using a fluorescence reader (TECAN Trading AG, Switzerland).

The subject of another test is arginase. The settings on record: for Km: read-out: Km of arginase; for Km / Vmax of arginase: substrate of arginase, 55° C., 10 minutes, pH 10.0.
Another test concerns nNOS. The test can be described thus: Expression of nNOS in penile tissues by immunoblotting. Type of test: in vivo. Conditions: male Sprague-Dawley rats, orally administered for 7 days twice a day; AFG 200 and 400 mg/kg/day, BGE 400 mg/kg/day; vs control group; FIG. 8. The method, then: as §1
(§2) 8 weeks old male Sprague-Dawley rats were allowed to be adapted to the environment of the breeding cage. […] The amount of dietary intake was measured at a certain time of 9:00 a.m. to 10:00 a.m. every day. […]
(§3) After quickly pouring liquid nitrogen into the tissues and pulverizing the tissues, proteins were extracted by RIPA lysis buffer (pH 7.4) containing 50 mM Tris-HCl, 1% NP-40, 0.25% sodium deoxycholate, 150 mM NaCl, 1 mM EDTA, 1 mM PMSF, 1 mM sodium orthovanadate, 1 mM NaF, 1 mg/mL aprotinin, 1 mg/mL leupeptin and 1 mg/mL pepstatin. After quantifying the extracted proteins using Bio-Rad protein assay kit, 30 μg and 40 μg of proteins were separated by SDS-PAGE using 8% acrylamide gel for 2 hours, and transferred to nitrocellulose membrane with being blocked by 2% BSA. […]
On the technique in general: Immunoblotting shows a protein as a band on a membrane.

For another test, the system named is activated eNOS. Put plainly: Expression of activated eNOS in endothelial cells. Conditions: immunoblotting, FIG. 11. Type of test: cell-based. Here is the method:
Endothelial cells (BAECs) previously treated with the samples were washed with cold PBS buffer (pH 7.2) twice and then treated with RIPA lysis buffer [50 mM Tris-HCl, 150 mM NaCl, 0.5% sodium deoxycholate, 1% NP 40, 1% phosphatase inhibitor cocktail, 1 mM PMSF] in 150 μL/well to collect cell extracts. The protein content of the collected cell extracts was determined using Bradford assay, and then 25 μg of the protein was separated by using SDS-PAGE and transferred to nitrocellulose membrane. The nitrocellulose membrane was blocked with 1% BSA (Bovine serum albumin) solution at room temperature for 1 hour, and reacted with a primary antibody specific for the target protein at 4° C. for 12 hours. Upon completion of the reaction, the nitrocellulose membrane was washed with TBST (10 mM Tris-HCl, 150 mM NaCl, 0.05% NP 40) several times, and reacted with a secondary antibody binding to HRP (Horse radish peroxidase) at room temperature for 1 hour. After that, the nitrocellulose membrane was washed again with TBST and the target protein was confirmed by using ECL solution. To identify the target protein, luminesent image analyzer (LAS 4000 mini) were used. […] It is possible to produce nitric oxide (NO) when eNOS is phosphorylated to be activated. […]

In another test the test system is cGMP. The test can be described thus: Measurement of cGMP in penile tissues. In kind it is in vivo. The settings on record: male Sprague-Dawley rats, FIG. 10. Here is the method: as §1
8 weeks old male Sprague-Dawley rats were allowed to be adapted to the environment of the breeding cage. Depending on their body weight, the rats were divided into 5 groups of control group (saline), Viagra® group (1.7 mg/kg/day), two AFG groups (200 and 400 mg/kg/day) and BGE (conventional red ginseng) group (400 mg/kg/day) and orally administered for 7 days twice a day (in the morning and in the afternoon). The amount of dietary intake was measured at a certain time of 9:00 a.m. to 10:00 a.m. every day.
After the end of feeding period, the rats were fasted for 12 hours and anesthetized with […]. […]
The concentration of cGMP was measured by a method which slightly modifies methods proposed by Park (J. Ethnopharmacol, 2004) and Knowles (Biochem. J, 1990). […]
A standard curve was created by using 0.8-50 pmol/mL of cGMP, and the concentration of cGMP was measured by cGMP ELISA kit (Aassay Designs, Inc., Michigan). […]

Another test concerns eNOS. The test can be described thus: Expression of eNOS in penile tissues by immunoblotting. In kind it is in vivo. The settings on record: male Sprague-Dawley rats, orally administered for 7 days twice a day; AFG 200 and 400 mg/kg/day, BGE 400 mg/kg/day; vs control group; FIG. 8. The method, then:
as §1, §2, §3

Procedure for arginase: 20 mU arginase was dissolved in 150 μL of 0.1M carbonate-bicarbonate buffer (pH 10.0). […] After that, 750 μL of acetic acid was added to the reaction mixture so as to stop the reaction. Then, 250 μL of ninhydrin solution was added to the mixture and was reacted at 100° C. for 1 hour. The reaction mixture was cooled and the absorbance was measured at 515 nm using ELISA reader.
A standard curve was created by using 0.01-10 μM of L-ornithine, and then the arginase activity was calculated and represented from the ornithine standard curve.

Turning to `NC(N)=NCCC[C@H](NC[C@@]1(O)OC[C@@H](O)[C@@H](O[C@@H]2O[C@H](CO)[C@@H](O)[C@H](O)[C@H]2O)[C@@H]1O)C(=O)O` [AFG, arginyl-fructosyl-glucose], in the test on nitric oxide (NO), the “production of nitric oxide (NO) in the penile tissues” value is listed as “increased”. Moreover, in the test on arginase, the “decomposition rate of arginase as compared with arginine” value is given as “very low”, the Km came out at 129 µM and the Vmax of arginase turned out to be 588 µmol/min. Further, the “expression of nNOS in the penile tissues” value in the test on nNOS is on record as “increased”. For the same compound, the “expression of the activated eNOS in the endothelial cells (BAECs)” value with activated eNOS is “increased”. The “concentration of cGMP in the penile tissues” value in the test with cGMP (orally administered for 7 days twice a day, AFG 200 and 400 mg/kg/day, BGE 400 mg/kg/day, Viagra 1.7 mg/kg/day, vs negative control group) was “increased”. The “increase of the concentration of cGMP compared with the positive control group of Viagra” value with cGMP (penile tissues) is “less than the positive control group”. For the same compound, the “expression of eNOS in the penile tissues” value in the test with eNOS is listed as “increased”.
`N=C(N)NCCC[C@H](N)C(=O)O` [Arginine, L-arginine]: in the test with arginase, the Km came out at 12 µM and the Vmax of arginase is on record as 1,000 μmoles/min.

Source of the values: US20120245343A1, “ARGININE DERIVATIVES OR SALTS THEREOF EXHIBITING THE EFFECTS OF IMPROVING SEXUAL FUNCTION, COMPOSITION FOR IMPROVING SEXUAL FUNCTION COMPRISING SAME, AND METHOD FOR PREPARING SAME” (priority 2009, published 2012).
